{
  "source": "patent US20130273649A1",
  "about": "“Culture medium for pluripotent stem cells” (UNIVERSITY OF SOUTHERN CALIFORNIA, priority 2012, published 2013)",
  "format_in_all_cases": "cell-based",
  "key": {"[1]": {"system": "β-catenin", "assay": "Western blot of nuclear β-catenin in mouse EpiSCs", "conditions": "3 μM CHIR 12 h", "description": "(A) Western blot analysis of cytoplasmic, nuclear and total β-catenin levels in CD1 mouse EpiSCs overexpressing Flag-tagged Axin1 or Axin2. Cells were either untreated or treated with 3 μM CHIR for 12 h. (B) Immunostaining of CD1 mouse EpiSCs overexpressing Flag-tagged Axin2 (C) Co-IP of Flag or β-catenin in CD1 mouse EpiSCs overexpressing empty vector or Flag-tagged Axin2. Cells were treated with 3 μM CHIR for 12 h (D) Immunostaining of ΔNβ-catenin-ERT2-overexpressing CD1 mouse EpiSCs before and after treatment with 1 μM 4-OHT. (E). Western blot analysis of cytoplasmic and nuclear ΔNβ-catenin-ERT2 levels after treatment with 1 μM 4-OHT for 24 h. (F). Phase contrast image of ΔNβ-catenin-ERT2-EpiSCs after 25 passages in basal medium only. (G) qRT-PCR analysis of Oct4, Nanog and Fgf5 mRNA levels in ΔNβ-catenin-ERT2-EpiSCs maintained in basal medium or basal medium plus FGF2/activin for 11 passages. Data represent mean±s.d. of three biological replicates. (H) Phase contrast image of ΔNβ-catenin-ERT2-EpiSCs after treatment with 1 μM 4-OHT for 24 h. […]\nNext, we investigated how β-catenin mediates EpiSC self-renewal. […] To determine whether nuclear translocation of β-catenin is affected by Axin, we analyzed β-catenin protein levels in whole-cell, cytoplasmic and nuclear fractions before and after CHIR treatment. […] In Axin2-EpiSCs, Axin2 expression was mainly detected in the cytoplasm (FIG. 6B). […]"}, "[2]": {"system": "H9 human ESCs", "assay": "Human ESC self-renewal culture", "description": "As human ESCs share defining features with mouse EpiSCs (Hanna et al., 2010; Rossant, 2008; Tesar et al., 2007), we tested whether modulating β-catenin function can also promote human ESC self-renewal. […] Next, we examined the effect of CHIR/XAV and CHIR/IWR-1 on human ESC self-renewal. […] Similar results were obtained in H1 and HES3 human ESCs (data not shown). […] Moreover, human ESCs maintained in CHIR/IWR-1 express pluripotency markers Oct4, Nanog and Sox2 (FIG. 7E), and retain the ability to differentiate into cells of all three germ layers, both in vitro and in vivo (FIGS. 7F and 7G).\nThe basal medium for mouse EpiSC culture is the conventional mouse ESC medium, which consists of GMEM (Sigma) supplemented with 10% fetal bovine serum (FBS) (Hyclone), 2 mM L-glutamine (Invitrogen), 1 mM sodium pyruvate (Invitrogen), 1% nonessential amino acids (Invitrogen), and 0.1 mM (3-mercaptoethanol. Mouse EpiSCs were derived and maintained in the basal medium supplemented with FGF2/activin, CHIR/XAV, or CHIR/IWR-1. The basal medium for rat EpiSC culture is N2B27 (Tong et al., 2011), which was prepared by mixing 500 ml of DMEM/F12 (Invitrogen) with 500 ml of Neurobasal™ medium (Invitrogen), and adding 5 ml of N2 (Invitrogen), 10 ml of B27 (Invitrogen), 5 ml of Glutamax™ (Invitrogen), and 1 ml of 0.1 M β-mercaptoethanol (Sigma). The basal medium for human ESC culture consists of Knockout™ DMEM/F12 supplemented with 20% KSR (Invitrogen), 1% nonessential amino acids, 2 mM L-glutamine, and 0.1 mM (3-mercaptoethanol. Human ESCs were cultured in the basal medium supplemented with FGF2, CHIR/XAV, or CHIR/IWR-1.\nH1, H9, HES-2 and HES-3 human ESC lines were kindly provided by the University of Southern California Stem Cell Core Facility. Human ESCs were routinely maintained on γ-irradiated MEF feeders in Knockout™ DMEM medium (Invitrogen) supplemented with 20% Knockout™ serum replacement (KSR; Invitrogen), 10 ng/ml FGF2 (PeproTech), 1% nonessential amino acids, 2 mM L-glutamine, and 0.1 mM β-mercaptoethanol. […]"}, "[3]": {"system": "Axin2", "assay": "Western blot of Axin2 in human ESCs", "conditions": "human ESCs treated 24 h"}},
  "data": [
    {"smiles": "Cc1c[nH]c(-c2cnc(NCCNc3ccc(C#N)cn3)nc2-c2ccc(Cl)cc2Cl)n1", "note": "[CHIR99021, 6-((2-((4-(2,4-Dichlorophenyl)-5-(4-methyl-1H-imidazol-2-yl)pyrimidin-2-yl)amino)ethyl)amino)nicotinonitrile]", "values": [
      {"measurement": "nuclear β-catenin protein level", "setting": "[1]; Axin2-EpiSCs", "value": "barely detectable"},
      {"measurement": "nuclear β-catenin protein level", "setting": "[1]; vector-EpiSCs and Axin1-EpiSCs", "value": "dramatically increased"},
      {"measurement": "self-renewal of Axin2-overexpressing human ESCs", "setting": "[2]; Axin2-hESC (H9), CHIR alone", "value": "could support stable and long-term self-renewal of Axin2-hESCs"},
      {"measurement": "human ESC self-renewal / differentiation", "setting": "[2]; H9 human ESCs, CHIR 3 μM, IWR-1 2.5 μM, XAV939 2 μM", "value": "induced differentiation of H9 human ESCs"},
      {"measurement": "amount of Axin2 protein", "setting": "[3]", "value": "induced the expression of Axin2"}
    ]}
  ]
}
